Source: article PMC8233378, “Acyclic nucleoside phosphonates with adenine nucleobase inhibit Trypanosoma brucei adenine phosphoribosyltransferase in vitro” (Scientific Reports, 2021)

Tests used:
[1] = test system: Leishmania donovani APRT1; set-up: method as in PMID 11900545; details: substrate of Leishmania donovani APRT1; cited from earlier work
[2] = test system: Normal human dermal fibroblasts (NHDF); assay: Cytotoxicity of the prodrug in human cells (CellTiter-Glo 2.0), NHDF; assay type: cell-based; details: 10 µM
Experimental: (§1) Compound cytotoxicity was evaluated in Hela S3 cancer cells and non-tumor human dermal fibroblasts (NHDF). All cell lines were obtained from ATCC (Manassas, VA, USA). The cytotoxicity was assayed using CellTiter-Glo® 2.0 detection reagent (Promega, Madison, USA) according to the manufacturer’s protocol.

HeLa S3 cells = assay: Cytotoxicity of the prodrug in human cells (CellTiter-Glo 2.0), HeLa S3; assay type: cell-based; details: HeLa S3, 10 µM
Experimental: as §1

T. brucei BSF cells = assay: Cell cycle analysis of treated trypanosomes (microscopy, flow cytometry with propidium iodide); assay type: cell-based, Trypanosoma brucei
Source text: The inhibition of the growth of T. brucei BSF in HMI-11 medium in single micromolar EC50 values (Table 1) was somewhat surprising considering the dispensability of APRT enzymes for these cells. […] To get deeper insights into the in vivo action of ANPs on APRT enzyme we tested their cytotoxicity on wild type cells grown in HMI-11^adenine medium. In this medium, the cells rely on the activity of the APRT enzyme to produce AMP and other […]. […] To corroborate this observation, we also tested cells with induced ectopic expression of V5-tagged APRT1 in both types of media and in the presence of the selected ANPs. […] The changes in the distribution of different cell cycle stages within a population were further assessed by flow cytometry assaying the DNA content by staining the cells with propidium iodide (Fig. 8A).
BFS trypanosomes in log phase were resuspended in HMI-11 medium to a density of 2 × 10^5 cells ml^−1. Test compounds at concentrations ranging from 1 to 16 µM were added to the cell suspension followed by 12 h incubation at 37 °C. The cell cycle analysis was performed as described previously. Briefly, approximately 2 × 10^6 cells were washed with PBS and fixed in 1 ml of 70% methanol in 1 × PBS and stored at 4 °C overnight. Following a PBS wash, samples were incubated with 10 µg/ml propidium iodide and 9.6 µg/ml of RNaseA at 37 °C for 45 min. Samples were analyzed on a FACS Canto II (BD) collecting 10,000 gated events.

[3] = biological target: recombinant T. brucei APRT1 (Trypanosoma brucei brucei, UniProt Q57V32); assay: APRT1 steady-state enzyme kinetics for substrates; details: substrate of T. brucei APRT1
Experimental: To test if the newly synthesized ANPs with an adenine as a nucleobase can inhibit the activity of the APRT1 and APRT2, both enzymes were overexpressed in E. coli. […] First, we monitored the APRT1 enzyme activity by a continuous spectrophotometric assay measuring the conversion of adenine to AMP at 256 nm.
The methodology was adapted from Ref.[6]. Briefly, the enzyme kinetics of APRT1 were measured by a continuous spectrophotometric assay measuring the conversion of adenine to AMP, at 256 nm. The concentration of enzyme in the assay was 140 nM, the concentration of PRib-PP was kept at 1 mM and the adenine concentration varied from 3.75 to 60 μM. The reaction was carried out using a 1.0 cm path length with a UV Visible spectrometer 1601 (Shimadzu) in the reaction buffer (0.1 M Tris, pH 8.4; 0.11 M MgCl2; at 25 °C). The initial velocity (V0 [µM/min]) was calculated using Beer–Lambert law for different concentration of the purine substrate molecules: A = Δε × L × c where A is the measured absorbance, Δε is constant 2100 M^−1 cm^−1 for adenine, c is a concentration of the product formed in one minute (V0) and L is the length of a cuvette. The Km, Vmax and kcat values were calculated using GraphPad Prism 9 according to Michaelis–Menten kinetics. […] The Ki values were calculated using non-linear regression in GraphPad Prism 9.

[4] = substrate: Nc1ncnc2nc[nH]c12; assay: purified protein, by the assay type; details: other: substrate of T. brucei APRT1; pH 8.4; 25.0 °C
Source text: The APRT1 was purified as an active recombinant enzyme from the soluble fraction. […] First, we monitored the APRT1 enzyme activity by a continuous spectrophotometric assay measuring the conversion of adenine to AMP at 256 nm.

Nc1ncnc2[nH]cnc12 [adenine]
Kcat [1]: 17.9 s⁻¹
Km [1]: 2.3 ± 1.1 µM

CCOC(=O)[C@H](Cc1ccccc1)NP(=O)(CCN(CCN(CCP(=O)(N[C@@H](Cc1ccccc1)C(=O)OCC)N[C@@H](Cc1ccccc1)C(=O)OCC)CCP(=O)(N[C@@H](Cc1ccccc1)C(=O)OCC)N[C@@H](Cc1ccccc1)C(=O)OCC)CCn1cnc2c(N)ncnc21)N[C@@H](Cc1ccccc1)C(=O)OCC [compound 28, Hexa-(ethyl L-phenylalanine) prodrug of (2-((2-((2-(adenine-9-yl)ethyl)(2-phosphonoethyl)amino)ethyl)(2-phosphonoethyl)amino)ethyl)phosphonic acid]
effect on viability of NHDF (in words) [2]: toxic
Cytotoxicity of prodrug: NHDF viability ([2]; NHDF): 4%
Cytotoxicity of prodrug: HeLaS3 viability (HeLa S3 cells): 94%
direct microscopic observation of exposed T. brucei cells (T. brucei BSF cells): problems in the cell cycle

O=P(O)(O)OC[C@H]1O[C@H](OP(=O)(O)OP(=O)(O)O)[C@H](O)[C@@H]1O [phosphoribosyl pyrophosphate (PRib-P), 5-phospho-α-D-ribosyl-1-pyrophosphate]
Kcat [3]: 1.8 s⁻¹
Km [3]: 162 ± 21.6 µM
Km [1]: 25.1 ± 5.9 µM

B1: recombinant T. brucei APRT1 (Trypanosoma brucei brucei TREU927) (protein)
chain: SLVEVLPNYFTLSKDSPLRKKFEKVYKWYSPAFSPHDVPRFAEVGNITENPEVMRGIRDFFVDRYKNLQQPITHILGFDSRGFLLGPMIAVELNVPFVLIRKANKIAGVIIKSEPYTKEYAAESEECMTVRFGSFDKNSRVVLIDDVIATGGTMLAGVQLVDACGATLVEVAGILGLTFLKGTQPAHTFAGGRYSNVPFVTLVDETVLSDENCGDPLHHKGSRIISCAEAKKLI
Km [4]: 8.7 ± 1.9 µM
kcat [4]: 0.82 s⁻¹
